From patent publication US7981903B2, “2-[2-{phenylamino}-1H-pyrrolo[2,3-D]pyrimidin-4-yl)amino] benzamide derivatives as IGF-1R inhibitors for the treatment of cancer” (GlaxoSmithKline LLC, priority 2007, dated 2011)
pIC50: −log10 of the molar value.

Columns and labels:
Assay type in all cases: biochemical
[1] = molecular target: T1, human IGF1R (hIGF1R) (Homo sapiens, UniProt P08069); assay: TR-FRET kinase assay of purified hIGF1R; settings: activated hIGF1R 0.5 nM, 10 μM ATP, values given as pIC50 category, read-out: IGF-1R pIC50 (converted)
T1 construct: containing amino acid residues 957-1367 of human IGF1R; made in house; host or cells: Sf9 cells (baculovirus)
T1 sequence (P08069 957-1367): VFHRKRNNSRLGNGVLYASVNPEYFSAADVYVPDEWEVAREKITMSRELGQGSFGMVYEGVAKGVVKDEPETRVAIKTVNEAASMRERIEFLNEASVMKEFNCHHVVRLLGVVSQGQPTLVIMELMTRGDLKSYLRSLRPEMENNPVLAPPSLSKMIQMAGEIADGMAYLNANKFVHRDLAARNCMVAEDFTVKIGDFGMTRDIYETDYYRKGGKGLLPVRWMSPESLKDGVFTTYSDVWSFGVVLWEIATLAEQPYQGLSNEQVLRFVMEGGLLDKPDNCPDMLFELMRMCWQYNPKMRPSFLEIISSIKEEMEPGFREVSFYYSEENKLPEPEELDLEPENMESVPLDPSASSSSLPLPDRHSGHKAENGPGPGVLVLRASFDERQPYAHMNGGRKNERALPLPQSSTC
Description: (§1) Time Resolved Fluorescence Resonance Energy Transfer (TR-FRET) assays were carried out on the exemplified compounds as follows:
(§2) Purity is determined by HPLC. The calculated molecular mass of the peptide is 2216 dalton. Tyrosine phosphorylation by human IGF1R (hIGF1R) or human IR (hIR) occurs as indicated (Y*) in the peptide sequence described. Solid peptide sample is dissolved to approximately 1 mM in DMSO, aliquoted, and stored at −20° C. until use. True peptide concentration is determined by amino acid analysis.
hIGF1R: GST-rTEV-IGF-1R(957-1367) containing amino acid residues 957-1367 of human IGF1R (as annotated by National Center for Biotechnology Information (NCBI) accession number NP_000866) is purified from a baculovirus expression system in Sf9 cells using Glutathione Sepharose 4FF column chromatography followed by Sephadex-200 size exclusion column chromatography. […] Samples, in 25 mM Tris-HCl, 250 mM NaCl, 5% glycerol, 1 mM DTT, pH 7.5, are stored at −80° C. until use.
(§3) hIGF1R: Activation of GST-rTEV-IGF-1R(957-1367) is achieved by a 4 minute incubation of hIGF1R (2.7 μM final) with 2 mM ATP in 50 mM HEPES, 20 mM MgCL2, 0.1 mg/ml BSA, at room temperature. Autophosphorylation is stopped by addition of EDTA (to 100 mM final). Aliquoted samples are flash frozen in liquid nitrogen and stored at −80° C. until use.
(§4) Assays are performed in 384-well (Greiner, Catalog No. 784076) microtiter plates. Reaction buffer (50 mM HEPES buffer, pH 7.5; 10 mM MgCL2; 3 mM DTT; 1 mM CHAPS; 0.1 mg/ml BSA) for peptide phosphorylation (10 μl volume) contained, in final concentrations, 500 nM biotinylated peptide substrate; 10 μM ATP; and purified, activated hIGF1R or hIR (0.5 nM). Compounds, titrated in DMSO, are evaluated at eleven concentrations ranging from 50 μM to 0.2 nM. […] Reactions are incubated for 1 hour at room temperature and are stopped by a 5 μl addition of EDTA (to 33 mM). A further addition of 5 μl detection reagents (for final 7 nM Streptavidin-APC (Perkin Elmer #CR^130-150), 1 nM Europium-labeled anti-phosphotyrosine monoclonal antibody (PerkinElmer #AD0067), added in reaction buffer (without DTT), is required for signal generation. After 30 minutes, signal is read on PerkinElmer Viewlux microplate imager or Wallac Victor fluorometer.
(§5) The data for compound concentration responses were plotted as % Inhibition, calculated with the data reduction formula 100*(1-[(U1-C2)/(C1-C2)]), versus concentration of compound, where • U is the unknown value, • C1 is the average control value obtained for DMSO only, and • C2 is the average control value obtained for reactions stopped with EDTA at • t=0.
(§6) Data were fitted to the curve described by: y=((Vmax*x)/(K+x)) where • Vmax is the upper asymptote and • K is the IC50.

[2] = molecular target: T2, human IR (hIR) (Homo sapiens, UniProt P06213); assay: TR-FRET kinase assay of purified hIR; settings: activated hIR 0.5 nM, 10 μM ATP, values given as pIC50 category
T2 construct: containing amino acid residues 979-1382 of human IR; made in house; host or cells: Sf9 cells (baculovirus), same process as hIGF1R
T2 sequence (P06213 979-1382): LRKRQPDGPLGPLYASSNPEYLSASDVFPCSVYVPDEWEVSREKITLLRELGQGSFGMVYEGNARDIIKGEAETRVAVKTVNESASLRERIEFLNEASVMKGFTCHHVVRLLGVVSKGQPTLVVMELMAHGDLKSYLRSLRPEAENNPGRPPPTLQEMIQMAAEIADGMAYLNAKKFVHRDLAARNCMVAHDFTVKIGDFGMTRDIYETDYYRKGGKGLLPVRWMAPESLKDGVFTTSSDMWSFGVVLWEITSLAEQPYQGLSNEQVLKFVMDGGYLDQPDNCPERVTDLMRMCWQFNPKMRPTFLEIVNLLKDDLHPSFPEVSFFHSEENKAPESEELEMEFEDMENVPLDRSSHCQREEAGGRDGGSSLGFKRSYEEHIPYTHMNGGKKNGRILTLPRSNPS
Description: as §1, §2
hIR: GST-rTEV-IR(979-1382) containing amino acid residues 979-1382 of human IR (as annotated by NCBI accession number NP_000199) is expressed and purified by the same process as hIGF1R. […] Samples, in 25 mM Tris-HCl, 250 mM NaCl, 5% glycerol, 1 mM DTT, pH 7.5, are stored at −80° C. until use.
as §3, with “hIR:” for “hIGF1R:”, “5” for “4”, “hIR” for “hIGF1R”, “100” for “50”, “10” for “20”
as §4, §5, §6

[3] = molecular target: ALK (Homo sapiens, UniProt Q9UM73); assay: ALK enzyme assay (HTRF); settings: 0.25 nM ALK, 15.0 μM ATP, values given as pIC50 category
Sequence of ALK (Q9UM73 19-1620): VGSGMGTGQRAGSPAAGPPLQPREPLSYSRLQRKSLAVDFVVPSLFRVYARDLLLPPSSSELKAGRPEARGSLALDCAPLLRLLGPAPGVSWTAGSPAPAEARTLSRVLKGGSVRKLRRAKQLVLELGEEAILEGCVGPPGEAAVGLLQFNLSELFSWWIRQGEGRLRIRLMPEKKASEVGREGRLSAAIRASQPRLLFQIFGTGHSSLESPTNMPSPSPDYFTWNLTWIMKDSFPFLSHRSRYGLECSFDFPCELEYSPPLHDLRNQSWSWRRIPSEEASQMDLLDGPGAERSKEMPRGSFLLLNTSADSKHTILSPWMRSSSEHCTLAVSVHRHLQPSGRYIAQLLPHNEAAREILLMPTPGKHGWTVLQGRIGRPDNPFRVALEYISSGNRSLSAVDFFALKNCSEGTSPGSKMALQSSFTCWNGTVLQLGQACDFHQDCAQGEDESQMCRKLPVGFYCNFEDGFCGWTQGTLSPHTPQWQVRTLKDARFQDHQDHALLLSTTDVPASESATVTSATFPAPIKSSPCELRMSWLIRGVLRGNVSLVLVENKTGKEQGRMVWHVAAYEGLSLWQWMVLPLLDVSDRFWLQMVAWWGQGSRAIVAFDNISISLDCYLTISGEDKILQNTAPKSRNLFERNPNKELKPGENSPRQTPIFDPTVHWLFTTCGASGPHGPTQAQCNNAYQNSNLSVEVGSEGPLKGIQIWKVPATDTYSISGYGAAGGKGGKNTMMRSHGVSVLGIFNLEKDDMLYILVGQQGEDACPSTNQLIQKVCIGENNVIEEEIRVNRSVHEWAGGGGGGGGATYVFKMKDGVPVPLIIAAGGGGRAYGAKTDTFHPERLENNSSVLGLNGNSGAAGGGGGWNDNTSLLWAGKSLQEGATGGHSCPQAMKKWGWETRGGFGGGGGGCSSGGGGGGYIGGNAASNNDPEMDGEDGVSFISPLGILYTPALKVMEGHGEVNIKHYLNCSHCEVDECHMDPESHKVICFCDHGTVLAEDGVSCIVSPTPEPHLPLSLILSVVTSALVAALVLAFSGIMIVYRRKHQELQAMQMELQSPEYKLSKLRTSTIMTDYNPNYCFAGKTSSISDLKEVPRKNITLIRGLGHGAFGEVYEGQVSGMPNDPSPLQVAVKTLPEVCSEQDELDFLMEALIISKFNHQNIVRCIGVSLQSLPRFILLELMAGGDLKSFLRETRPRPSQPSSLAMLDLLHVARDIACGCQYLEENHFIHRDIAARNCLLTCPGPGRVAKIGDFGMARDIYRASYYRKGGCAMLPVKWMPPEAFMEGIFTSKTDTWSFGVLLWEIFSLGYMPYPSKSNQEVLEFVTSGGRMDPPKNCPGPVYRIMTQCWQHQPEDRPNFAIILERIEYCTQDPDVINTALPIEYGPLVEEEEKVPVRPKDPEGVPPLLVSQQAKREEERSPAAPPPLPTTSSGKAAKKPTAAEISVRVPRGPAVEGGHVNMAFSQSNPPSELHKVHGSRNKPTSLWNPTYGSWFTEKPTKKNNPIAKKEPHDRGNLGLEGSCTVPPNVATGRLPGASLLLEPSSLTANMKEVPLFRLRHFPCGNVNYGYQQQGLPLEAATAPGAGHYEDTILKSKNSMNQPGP
Description: The method measures the ability of the isolated enzyme to catalyse the transfer of the gamma-phosphate from ATP onto the tyrosine residue of a biotinylated synthetic peptide. The extent of tyrosine phosphorylation was measured using an anti-phosphotyrosine antibody, and quantified by homogenous time-resolved fluorescence (HTRF) assay purchased from CisBio (62TK0PEJ).
Reactions were performed in black 384-well polystyrene low volume plates in a final volume of 5 μl.
The reactions were then started by adding the substrate mix. The reactions were allowed to proceed for 120 minutes at 20° C. The reactions were then terminated by the addition of 5 μl HTRF detection mix to each well. The final concentrations of the detection reagents were: 50 mM HEPES (pH7.0); 0.1% BSA; 0.8 M KF; 20 mM EDTA; 1 mM CHAPS; TK-antibody Europium Cryptate; and 41 nM streptavidin-XL665. Assay plates were left unsealed, stacked and incubated at 20° for 60 minutes. Quantification of activity was achieved by counting in an Envision Counter (PerkinElmer).
Compounds under analysis were dissolved in Me2SO to 1.0 mM and serially diluted 1 to 3 with Me2SO through twelve dilutions. 0.05 μl of each concentration was transferred to the corresponding well of an assay plate. This creates a final compound concentration range from 0.00017 to 10 μM.
The data for dose responses were plotted as % Inhibition calculated with the data reduction formula 100*(1-(U1-C2)/(C1-C2)) versus concentration of compound where U is the unknown value, C1 is the average control value obtained for 1% DMSO, and C2 is the average control value obtained for 0.1 M EDTA. Data were fitted with a curve described by:
[formula] where A is the minimum y, B is the maximum y concentration [M], D is the slope factor, and x is the log10 of the compound.

| IC50 [1] [nM] | pIC50 [2] | pIC50 [3] | Structure (SMILES) |
| --- | --- | --- | --- |
| 1.26 to 3.98 | 9.00 to 9.60 | 8.40 to 8.90 | Cc1ccc(NC(=O)CN(C)C)cc1Nc1nc(Nc2ccccc2C(N)=O)c2cc[nH]c2n1 [Example 13, 2-{[2-({5-[(N,N-dimethylglycyl)amino]-2-methylphenyl}amino)-1H-pyrrolo[2,3-d]pyrimidin-4-yl]amino}benzamide] |
| 5.01 to 200 | 6.80 to 8.30 | 6.70 to 8.30 | COc1ccc(CS(C)(=O)=O)cc1Nc1nc(Nc2ccccc2C(N)=O)c2cc[nH]c2n1 [Example 20, 2-{[2-({2-(methyloxy)-5-[(methylsulfonyl)methyl]phenyl}amino)-1H-pyrrolo[2,3-d]pyrimidin-4-yl]amino}benzamide] |
| 5.01 to 200 | 8.40 to 8.90 | 6.70 to 8.30 | Cc1ccc(Nc2nc(Nc3cc(NC(=O)CN(C)C)ccc3C)nc3[nH]ccc23)c(C(N)=O)c1 [Example 34, 2-{[2-({5-[(N,N-dimethylglycyl)amino]-2-methylphenyl}amino)-1H-pyrrolo[2,3-d]pyrimidin-4-yl]amino}-5-methylbenzamide] |
| 5.01 to 200 | 6.80 to 8.30 | 6.70 to 8.30 | CCCN1CCC=C(c2ccc(Nc3nc(Nc4cc(C)ccc4C(N)=O)c4cc[nH]c4n3)c(C)c2)C1 [Example 35, 4-methyl-2-[(2-{[2-methyl-4-(1-propyl-1,2,5,6-tetrahydro-3-pyridinyl)phenyl]amino}-1H-pyrrolo[2,3-d]pyrimidin-4-yl)amino]benzamide] |
| 5.01 to 200 |  | 8.40 to 8.90 | CCCN1CCC=C(c2ccc(Nc3nc(Nc4ccc(OC)cc4C(N)=O)c4cc[nH]c4n3)c(C)c2)C1 [Example 37, 5-(methyloxy)-2-[(2-{[2-methyl-4-(1-propyl-1,2,5,6-tetrahydro-3-pyridinyl)phenyl]amino}-1H-pyrrolo[2,3-d]pyrimidin-4-yl)amino]benzamide] |
|  |  | 8.40 to 8.90 | COc1cc2c(cc1Nc1nc(Nc3cccc(F)c3C(N)=O)c3cc[nH]c3n1)N(C(=O)CN1CCC(O)C1)CC2 (centres unmarked) [Example 181, 2-fluoro-6-[(2-{[1-[(3-hydroxy-1-pyrrolidinyl)acetyl]-5-(methyloxy)-2,3-dihydro-1H-indol-6-yl]amino}-1H-pyrrolo[2,3-d]pyrimidin-4-yl)amino]benzamide] |
|  |  | 8.40 to 8.90 | CNC(=O)c1c(F)cccc1Nc1nc(Nc2cc3c(cc2OC)CCN3C(=O)CN2CCCC(O)C2)nc2[nH]ccc12 (centres unmarked) [Example 184, 2-fluoro-6-[(2-{[1-[(3-hydroxy-1-piperidinyl)acetyl]-5-(methyloxy)-2,3-dihydro-1H-indol-6-yl]amino}-1H-pyrrolo[2,3-d]pyrimidin-4-yl)amino]-N-methylbenzamide] |
|  |  | 6.70 to 8.30 | CNC(=O)c1ccccc1Nc1nc(Nc2cc3c(cc2OC)CCN3C(=O)CN(C)C)nc2[nH]ccc12 [Example 241, 2-[(2-{[1-(N,N-dimethylglycyl)-5-(methyloxy)-2,3-dihydro-1H-indol-6-yl]amino}-1H-pyrrolo[2,3-d]pyrimidin-4-yl)amino]-N-methylbenzamide] |

The remaining lines, values behind:

| Structure (SMILES) | IC50 [1] [nM] | pIC50 [2] | pIC50 [3] |
| --- | --- | --- | --- |
| CCCN1CCC=C(c2ccc(Nc3nc(Nc4ccccc4C(N)=O)c4cc[nH]c4n3)c(C)c2)C1 [Example 1, 2-[(2-{[2-methyl-4-(1-propyl-1,2,5,6-tetrahydro-3-pyridinyl)phenyl]amino}-1H-pyrrolo[2,3-d]pyrimidin-4-yl)amino]benzamide] | 5.01 to 200 | 6.80 to 8.30 | 9.00 to 9.60 |
| COc1cc(CS(C)(=O)=O)ccc1Nc1nc(Nc2ccccc2C(N)=O)c2cc[nH]c2n1 [Example 19, 2-{[2-({2-(methyloxy)-4-[(methylsulfonyl)methyl]phenyl}amino)-1H-pyrrolo[2,3-d]pyrimidin-4-yl]amino}benzamide] | 1.26 to 3.98 | 8.40 to 8.90 | 8.40 to 8.90 |
| CCCN1CCC=C(c2ccc(Nc3nc(Nc4ccc(C)cc4C(N)=O)c4cc[nH]c4n3)c(C)c2)C1 [Example 32, 5-methyl-2-[(2-{[2-methyl-4-(1-propyl-1,2,5,6-tetrahydro-3-pyridinyl)phenyl]amino}-1H-pyrrolo[2,3-d]pyrimidin-4-yl)amino]benzamide] | 1.26 to 3.98 | 8.40 to 8.90 | 8.40 to 8.90 |
| Cc1ccc(NC(=O)CN(C)C)cc1Nc1nc(Nc2ccc(Cl)cc2C(N)=O)c2cc[nH]c2n1 [Example 109, 5-chloro-2-{[2-({5-[(N,N-dimethylglycyl)amino]-2-methylphenyl}amino)-1H-pyrrolo[2,3-d]pyrimidin-4-yl]amino}benzamide] | 1.26 to 3.98 | 9.00 to 9.60 | 6.70 to 8.30 |
| CNC(=O)c1c(F)cccc1Nc1nc(Nc2cc3c(cc2OC)CCN3C(=O)CN2CCC(O)C2)nc2[nH]ccc12 (centres unmarked) [Example 182, 2-fluoro-6-[(2-{[1-[(3-hydroxy-1-pyrrolidinyl)acetyl]-5-(methyloxy)-2,3-dihydro-1H-indol-6-yl]amino}-1H-pyrrolo[2,3-d]pyrimidin-4-yl)amino]-N-methylbenzamide] |  |  | 9.00 to 9.60 |
| COc1cc2c(cc1Nc1nc(Nc3cccc(F)c3C(N)=O)c3cc[nH]c3n1)N(C(=O)CN1CCCC(O)C1)CC2 (centres unmarked) [Example 183, 2-fluoro-6-[(2-{[1-[(3-hydroxy-1-piperidinyl)acetyl]-5-(methyloxy)-2,3-dihydro-1H-indol-6-yl]amino}-1H-pyrrolo[2,3-d]pyrimidin-4-yl)amino]benzamide] |  |  | 9.00 to 9.60 |
| COc1cc2c(cc1Nc1nc(Nc3ccccc3C(N)=O)c3cc[nH]c3n1)N(C(=O)CN(C)C)CC2 [Example 240, 2-[(2-{[1-(N,N-dimethylglycyl)-5-(methyloxy)-2,3-dihydro-1H-indol-6-yl]amino}-1H-pyrrolo[2,3-d]pyrimidin-4-yl)amino]benzamide] |  |  | 9.00 to 9.60 |
